In ChEMBL document CHEMBL1201861, “Genomics of Drug Sensitity in Cancer screening data, Wellcome Trust Sanger Institute”:

Assays:
Assay in all cases: cells
Conditions in all cases: Homo sapiens
[1] = system: 697; format: functional, cell-based
Description: SANGER: Inhibition of human 697 cell growth in a cell viability assay.

[2] = system: SF-126; format: functional, cell-based;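 further: growth inhibition of human SF126 cells, read out with a cell viability assay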
Description: SANGER: Inhibition of human SF126 cell growth in a cell viability assay.

[3] = system: DMS-114; format: functional, cell-based
[4] = system: LS-411N; format: functional, cell-based
[5] = system: MMAC-SF; format: functional, cell-based;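 further: growth inhibition of human MMAC-SF cells, read out with a cell viability assay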
Description: SANGER: Inhibition of human MMAC-SF cell growth in a cell viability assay.

[6] = system: A4-Fuk; format: functional, cell-based;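 further: growth inhibition of A4-Fuk cells, read out by a cell viability assay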
Description: SANGER: Inhibition of human A4-Fuk cell growth in a cell viability assay.

[7] = system: TK-10; format: functional, cell-based;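 further: growth inhibition of TK-10 cells, read out in a cell viability assay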
Description: SANGER: Inhibition of human TK10 cell growth in a cell viability assay.

[8] = system: DU-4475; format: functional, cell-based
Description: SANGER: Inhibition of human DU-4475 cell growth in a cell viability assay.

[9] = system: GI-1; format: functional, cell-based;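 further: growth inhibition of human GI-1 cells, measured with a cell viability readout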
Description: SANGER: Inhibition of human GI-1 cell growth in a cell viability assay.

[10] = system: KM12; format: functional, cell-based;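 further: KM12 cell growth inhibition, read out with a cell viability assay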
Description: SANGER: Inhibition of human KM12 cell growth in a cell viability assay.

[11] = system: LS-1034; format: functional, cell-based
Description: SANGER: Inhibition of human LS-1034 cell growth in a cell viability assay.

[12] = system: A101D; format: functional, cell-based;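 further: growth inhibition of the cell line, measured with a viability assay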
Description: SANGER: Inhibition of human A101D cell growth in a cell viability assay.

[13] = system: JVM-3; format: functional, cell-based;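 further: growth inhibition of human JVM-3 cells, read out with a cell viability assay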
Description: SANGER: Inhibition of human JVM-3 cell growth in a cell viability assay.

[14] = system: OCI-AML2; format: functional, cell-based;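 further: growth inhibition of OCI-AML2 cells, read out with a cell viability assay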
Description: SANGER: Inhibition of human OCI-AML2 cell growth in a cell viability assay.

[15] = system: ONS-76; format: functional, cell-based;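 further: growth inhibition of human ONS-76 cells, read out with a cell viability assay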
Description: SANGER: Inhibition of human ONS-76 cell growth in a cell viability assay.

[16] = system: KLE; format: functional, cell-based;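 further: growth inhibition of human KLE cells, read out with a cell viability assay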
Description: SANGER: Inhibition of human KLE cell growth in a cell viability assay.

[17] = system: HuTu80; format: functional, cell-based, HUTU-80;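 further: growth inhibition of HuTu80 human cells, determined with a cell viability readout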
Description: SANGER: Inhibition of human HUTU-80 cell growth in a cell viability assay.

[18] = system: RPMI-8866; format: functional, cell-based
Description: SANGER: Inhibition of human RPMI-8866 cell growth in a cell viability assay.

[19] = system: COLO-824; format: functional, cell-based
Description: SANGER: Inhibition of human COLO-824 cell growth in a cell viability assay.

[20] = system: UACC-257; format: functional, cell-based
Description: SANGER: Inhibition of human UACC-257 cell growth in a cell viability assay.

[21] = system: TE-10; format: functional, cell-based;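 further: growth inhibition of TE-10 cells, measured by a cell viability assay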
Description: SANGER: Inhibition of human TE-10 cell growth in a cell viability assay.

[22] = system: NCI-H226; format: functional, cell-based;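 further: cell viability read-out used to gauge growth inhibition of the cells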
Description: SANGER: Inhibition of human NCI-H226 cell growth in a cell viability assay.

[23] = system: TE-6; format: functional, cell-based;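 further: growth inhibition of TE-6 cells, read out with a cell viability assay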
Description: SANGER: Inhibition of human TE-6 cell growth in a cell viability assay.

[24] = system: DOHH-2; format: functional, cell-based;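 further: growth inhibition of human DOHH-2 cells, read out with a cell viability assay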
Description: SANGER: Inhibition of human DOHH-2 cell growth in a cell viability assay.

[25] = system: MHH-PREB-1; format: functional, cell-based;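 further: cell viability assay measuring inhibition of proliferation of human MHH-PREB-1 cells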
Description: SANGER: Inhibition of human MHH-PREB-1 cell growth in a cell viability assay.

[26] = system: NCI-H1395; format: functional, cell-based;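 further: cell viability assay read-out quantifying reduced proliferation of human NCI-H1395 cells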
Description: SANGER: Inhibition of human NCI-H1395 cell growth in a cell viability assay.

[27] = system: SK-PN-DW; format: functional, cell-based;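 further: growth inhibition measured with a viability assay on these cells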
Description: SANGER: Inhibition of human SK-PN-DW cell growth in a cell viability assay.

[28] = system: SNU-C2B; format: functional, cell-based;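 further: cell viability readout used to measure compound-driven suppression of SNU-C2B cell proliferation, IC50 marking half-maximal growth inhibition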
Description: SANGER: Inhibition of human SNU-C2B cell growth in a cell viability assay.

[29] = system: KM-H2; format: functional, cell-based;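 further: growth inhibition of KM-H2 cells, read out by a cell viability assay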
Description: SANGER: Inhibition of human KM-H2 cell growth in a cell viability assay.

[30] = system: HCE-4; format: functional, cell-based;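 further: cell viability assay measuring inhibition of growth in the human HCE-4 cell line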
Description: SANGER: Inhibition of human HCE-4 cell growth in a cell viability assay.

[31] = system: ES1; format: functional, cell-based;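 further: growth inhibition of ES1 cells, read out with a cell viability assay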
Description: SANGER: Inhibition of human ES1 cell growth in a cell viability assay.

[32] = system: C2BBe1; format: functional, cell-based;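 further: growth inhibition of C2BBe1 cells, read out through a viability assay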
Description: SANGER: Inhibition of human C2BBe1 cell growth in a cell viability assay.

[33] = system: COLO-829; format: functional, cell-based
Description: SANGER: Inhibition of human COLO-829 cell growth in a cell viability assay.

[34] = system: TGBC24TKB; format: functional, cell-based;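 further: growth inhibition of human TGBC24TKB cells, read out with a cell viability assay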
Description: SANGER: Inhibition of human TGBC24TKB cell growth in a cell viability assay.

[35] = system: BB65-RCC; format: functional, cell-based;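 further: growth inhibition of the cell line, measured with a cell viability assay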
Description: SANGER: Inhibition of human BB65-RCC cell growth in a cell viability assay.

[36] = system: HT; format: functional, cell-based
Description: SANGER: Inhibition of human HT cell growth in a cell viability assay.

[37] = system: U-87 MG; format: functional, cell-based, U-87MG ATCC;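 further: growth inhibition of the cells measured with a viability assay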
Description: SANGER: Inhibition of human U-87-MG cell growth in a cell viability assay.

[38] = system: KNS-81-FD; format: functional, cell-based;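 further: growth inhibition of KNS-81-FD cells, read out with a cell viability assay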
Description: SANGER: Inhibition of human KNS-81-FD cell growth in a cell viability assay.

[39] = system: SNB-75; format: functional, cell-based;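 further: cell viability assay measuring growth inhibition of human SNB-75 cells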
Description: SANGER: Inhibition of human SNB75 cell growth in a cell viability assay.

[40] = system: L-428; format: functional, cell-based
Description: SANGER: Inhibition of human L-428 cell growth in a cell viability assay.

[41] = system: SHP77; format: functional, cell-based, SHP-77;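 further: growth inhibition of human SHP-77 cells measured by a cell viability assay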
Description: SANGER: Inhibition of human SHP-77 cell growth in a cell viability assay.

[42] = system: ETK-1; format: functional, cell-based;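 further: growth inhibition of human ETK-1 cells, read out with a cell viability assay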
Description: SANGER: Inhibition of human ETK-1 cell growth in a cell viability assay.

[43] = system: ES4; format: functional, cell-based;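 further: growth inhibition of human ES4 cells, read out by a cell viability assay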
Description: SANGER: Inhibition of human ES4 cell growth in a cell viability assay.

[44] = system: HCE-T; format: functional, cell-based;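 further: cell viability assay read-out, reporting inhibition of HCE-T cell growth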
Description: SANGER: Inhibition of human HCE-T cell growth in a cell viability assay.

[45] = system: COLO-668; format: functional, cell-based
Description: SANGER: Inhibition of human COLO-668 cell growth in a cell viability assay.

[46] = system: QIMR-WIL; format: functional, cell-based;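 further: growth inhibition of QIMR-WIL cells, read out with a cell viability assay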
Description: SANGER: Inhibition of human QIMR-WIL cell growth in a cell viability assay.

[47] = system: Ramos-2G6-4C10; format: functional, cell-based;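 further: growth inhibition of the cell line, measured by a cell viability read-out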
Description: SANGER: Inhibition of human Ramos-2G6-4C10 cell growth in a cell viability assay.

[48] = system: NB69; format: functional, cell-based;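 further: growth inhibition of NB69 cells, determined by a cell viability assay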
Description: SANGER: Inhibition of human NB69 cell growth in a cell viability assay.

[49] = system: SW 954; format: functional, cell-based;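 further: growth inhibition of SW954 human cancer cells, read out as cell viability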
Description: SANGER: Inhibition of human SW954 cell growth in a cell viability assay.

[50] = system: A388; format: functional, cell-based;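 further: growth inhibition of human A388 cells, read out with a cell viability assay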
Description: SANGER: Inhibition of human A388 cell growth in a cell viability assay.

[51] = system: MFH-ino; format: functional, cell-based;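 further: growth inhibition of human MFH-ino cells, read out by a cell viability assay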
Description: SANGER: Inhibition of human MFH-ino cell growth in a cell viability assay.

[52] = system: ML-2; format: functional, cell-based;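 further: growth inhibition of ML-2 cells, measured with a cell viability readout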
Description: SANGER: Inhibition of human ML-2 cell growth in a cell viability assay.

[53] = system: ACN; format: functional, cell-based;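 further: growth inhibition of the human ACN cell line, read out via cell viability testing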
Description: SANGER: Inhibition of human ACN cell growth in a cell viability assay.

[54] = system: BB30-HNC; format: functional, cell-based;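 further: growth inhibition of the cultured cell line, read out by a cell viability assay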
Description: SANGER: Inhibition of human BB30-HNC cell growth in a cell viability assay.

[55] = system: GT3TKB; format: functional, cell-based;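 further: growth inhibition of the cell line, read out with a cell viability assay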
Description: SANGER: Inhibition of human GT3TKB cell growth in a cell viability assay.

[56] = system: NB6; format: functional, cell-based;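 further: growth inhibition of NB6 cells, read out by a cell viability assay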
Description: SANGER: Inhibition of human NB6 cell growth in a cell viability assay.

[57] = system: K562; format: functional, cell-based
Description: SANGER: Inhibition of human K-562 cell growth in a cell viability assay.

[58] = system: CCRF-CEM; format: functional, cell-based;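 further: inhibition of CCRF-CEM cell growth, measured by a cell viability assay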
Description: SANGER: Inhibition of human CCRF-CEM cell growth in a cell viability assay.

[59] = system: ES3; format: functional, cell-based;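 further: growth inhibition of ES3 cells, read out with a cell viability assay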
Description: SANGER: Inhibition of human ES3 cell growth in a cell viability assay.

[60] = system: LXF-289 cell line; format: functional, cell-based
Description: SANGER: Inhibition of human LXF-289 cell growth in a cell viability assay.

[61] = system: LOX IMVI; format: functional, cell-based
Description: SANGER: Inhibition of human LOXIMVI cell growth in a cell viability assay.

[62] = system: LB831-BLC; format: functional, cell-based;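 further: growth inhibition of LB831-BLC cells, read out with a cell viability assay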
Description: SANGER: Inhibition of human LB831-BLC cell growth in a cell viability assay.

[63] = system: LB1047-RCC; format: functional, cell-based
Description: SANGER: Inhibition of human LB1047-RCC cell growth in a cell viability assay.

[64] = system: IA-LM; format: functional, cell-based
Description: SANGER: Inhibition of human IA-LM cell growth in a cell viability assay.

[65] = system: NB5; format: functional, cell-based
Description: SANGER: Inhibition of human NB5 cell growth in a cell viability assay.

## Fc1cc(-c2cc[nH]/c(=N/c3ccc(-n4cnc(N5CCOCC5)n4)cc3)n2)cc(N2CCOCC2)c1
[1]
  IC50: 373 nM
[2]
  IC50: 3160 nM
[3]
  IC50: > 5120 nM
[4]
  IC50: 198 nM
[5]
  IC50: 2480 nM
[6]
  IC50: 972 nM
[7]
  IC50: 1190 nM
[8]
  IC50: 569 nM
[9]
  IC50: 171 nM
[10]
  IC50: 212 nM
[11]
  IC50: 1920 nM
[12]
  IC50: 245 nM
[13]
  IC50: > 5120 nM
[14]
  IC50: 498 nM
[15]
  IC50: 396 nM
[16]
  IC50: 1810 nM
[17]
  IC50: 4230 nM
[18]
  IC50: 1180 nM
[19]
  IC50: 637 nM
[20]
  IC50: 1240 nM
[21]
  IC50: 305 nM
[22]
  IC50: 1430 nM
[23]
  IC50: 2000 nM
[24]
  IC50: 715 nM
[25]
  IC50: 430 nM
[26]
  IC50: > 5120 nM
[27]
  IC50: 669 nM
[28]
  IC50: 637 nM
[29]
  IC50: 1360 nM
[30]
  IC50: 903 nM
[31]
  IC50: 685 nM
[32]
  IC50: 764 nM
[33]
  IC50: 520 nM
[34]
  IC50: 1040 nM
[35]
  IC50: 924 nM
[36]
  IC50: 633 nM
[37]
  IC50: 2730 nM
[38]
  IC50: 4950 nM
[39]
  IC50: 291 nM
[40]
  IC50: 649 nM
[41]
  IC50: 825 nM
[42]
  IC50: 1060 nM
[43]
  IC50: 1390 nM
[44]
  IC50: 2790 nM
[45]
  IC50: 376 nM
[46]
  IC50: 343 nM
[47]
  IC50: 393 nM
[48]
  IC50: 1430 nM
[49]
  IC50: 473 nM
[50]
  IC50: 1940 nM
[51]
  IC50: 1040 nM
[52]
  IC50: 702 nM
[53]
  IC50: 78.6 nM
[54]
  IC50: 122 nM
[55]
  IC50: 302 nM
[56]
  IC50: 912 nM
[57]
  IC50: > 5120 nM
[58]
  IC50: 364 nM
[59]
  IC50: 1090 nM
[60]
  IC50: 797 nM
[61]
  IC50: 477 nM
[62]
  IC50: 420 nM
[63]
  IC50: 402 nM
[64]
  IC50: 371 nM
[65]
  IC50: > 5120 nM
